Test results as given in ChEMBL document CHEMBL5346923, “Novel pyridinium cationic pleuromutilin analogues overcoming bacterial multidrug resistance” (Eur J Med Chem, 2023).
Values after ≈ are worked out from the molar mass of the structure shown.

Columns and labels:
Type in all cases: functional
Enterococcus = test: Antibacterial activity against vancomycin-resistant Enterococcus ATCC 700221 assessed as inhibition of bacterial growth measured after 24 hrs by MH broth based assay
Bacillus subtilis = test: Antibacterial activity against Bacillus subtilis ATCC 6633 assessed as inhibition of bacterial growth measured after 24 hrs by MH broth based assay
Staphylococcus aureus [1] = test: Antibacterial activity against Staphylococcus aureus ATCC 29213 assessed as inhibition of bacterial growth measured after 24 hrs by MH broth based assay
Staphylococcus aureus [2] = test: Antibacterial activity against methicillin-resistant Staphylococcus aureus ATCC 43300 assessed as inhibition of bacterial growth measured after 24 hrs by MH broth based assay
Streptococcus pneumoniae = test: Antibacterial activity against Streptococcus pneumoniae ATCC 49619 assessed as inhibition of bacterial growth measured after 24 hrs by MH broth based assay
[3] = tested on: Staphylococcus epidermidis; test: Antibacterial activity against methicillin-resistant Staphylococcus epidermidis ATCC 51625 assessed as inhibition of bacterial growth measured after 24 hrs by MH broth based assay
Klebsiella pneumoniae = test: Antibacterial activity against Klebsiella pneumonia CMCC (B) 46117 assessed as inhibition of bacterial growth measured after 24 hrs by MH broth based assay
Escherichia coli [4] = test: Antibacterial activity against Escherichia coli ATCC 25922 assessed as inhibition of bacterial growth measured after 24 hrs by MH broth based assay
Proteus = test: Antibacterial activity against Proteus CMCC (B) 49027 assessed as inhibition of bacterial growth measured after 24 hrs by MH broth based assay
Escherichia coli [5] = test: Antibacterial activity against Escherichia coli MG1655 assessed as inhibition of bacterial growth measured after 24 hrs by MH broth based assay
Escherichia coli [6] = test: Antibacterial activity against Escherichia coli MG1655 harbouring acrB gene assessed as inhibition of bacterial growth measured after 24 hrs by MH broth based assay

Structure (SMILES) | MIC (Enterococcus) [µg/mL] | MIC (Bacillus subtilis) [µg/mL] | MIC (Staphylococcus aureus [1]) [µg/mL] | MIC (Staphylococcus aureus [2]) [µg/mL] | MIC (Streptococcus pneumoniae) [µg/mL] | MIC [3] [µg/mL] | MIC (Klebsiella pneumoniae) [µg/mL] | MIC (Escherichia coli [4]) [µg/mL] | MIC (Proteus) [µg/mL] | MIC (Escherichia coli [5]) [µg/mL] | MIC (Escherichia coli [6]) [µg/mL]
C=C[C@]1(C)C[C@@H](OC(=O)CSc2cc[n+](CCCCCC(=O)O)cc2)[C@]2(C)[C@H](C)CC[C@]3(CCC(=O)[C@H]32)[C@@H](C)[C@@H]1O.[I-] | 64 | > 64 | 8 | 16 | 4 | 8 | > 64 | > 64 | > 64 | 64 | 32
C=CC[n+]1ccc(SCC(=O)O[C@@H]2C[C@@](C)(C=C)[C@@H](O)[C@H](C)[C@]34CCC(=O)[C@H]3[C@@]2(C)[C@H](C)CC4)cc1.[I-] | 32 | 64 | 0.5 | 1 | 0.25 | 0.25 | 64 | 64 | > 64 | 64 | 1
CN[C@H](CC(C)C)C(=O)N[C@H]1C(=O)N[C@@H](CC(N)=O)C(=O)N[C@H]2C(=O)N[C@H]3C(=O)N[C@H](C(=O)N[C@H](C(=O)O)c4cc(O)cc(O)c4-c4cc3ccc4O)[C@H](O)c3ccc(c(Cl)c3)Oc3cc2cc(c3O[C@@H]2O[C@H](CO)[C@@H](O)[C@H](O)[C@H]2O[C@H]2C[C@](C)(N)[C@H](O)[C@H](C)O2)Oc2ccc(cc2Cl)[C@H]1O [VANCOMYCIN] | 64 (≈ 44.2 µM) | 0.125 (≈ 0.0863 µM) | – | – | 0.25 (≈ 0.173 µM) | 0.5 (≈ 0.345 µM) | > 64 | > 64 | > 64 | > 64 | > 64
C=C[C@]1(C)C[C@@H](OC(=O)CSc2cc[n+](CC(=O)NCCc3ccc(O)cc3)cc2)[C@]2(C)[C@H](C)CC[C@]3(CCC(=O)[C@H]32)[C@@H](C)[C@@H]1O.[I-] | 64 | > 64 | 0.5 | 0.5 | 0.25 | 0.25 | 32 | 64 | > 64 | 64 | 1
C=C[C@]1(C)C[C@@H](OC(=O)CSc2cc[n+](CCO)cc2)[C@]2(C)[C@H](C)CC[C@]3(CCC(=O)[C@H]32)[C@@H](C)[C@@H]1O.[I-] | 32 | 64 | 1 | 1 | 0.5 | 1 | 32 | 64 | 64 | 64 | 0.5
C=C[C@]1(C)C[C@@H](OC(=O)CSc2cc[n+](CC(=O)N3CCOCC3)cc2)[C@]2(C)[C@H](C)CC[C@]3(CCC(=O)[C@H]32)[C@@H](C)[C@@H]1O.[I-] | 64 | > 64 | 16 | 16 | 4 | 8 | > 64 | > 64 | > 64 | 64 | 8
C=C[C@]1(C)C[C@@H](OC(=O)CSc2cc[n+](Cc3cccc(NC(=O)OC(C)(C)C)c3)cc2)[C@]2(C)[C@H](C)CC[C@]3(CCC(=O)[C@H]32)[C@@H](C)[C@@H]1O.[I-] | 16 | 64 | 0.5 | 0.5 | < 0.031 | 0.125 | 64 | 64 | > 64 | 64 | 4
C=C[C@]1(C)C[C@@H](OC(=O)CSc2cc[n+](CCCCCCCCCCC(=O)O)cc2)[C@]2(C)[C@H](C)CC[C@]3(CCC(=O)[C@H]32)[C@@H](C)[C@@H]1O.[I-] | 64 | 64 | 0.5 | 0.5 | 0.5 | 2 | 64 | 64 | 64 | 64 | 32
C=C[C@]1(C)C[C@@H](OC(=O)CSc2cc[n+](C(C)C)cc2)[C@]2(C)[C@H](C)CC[C@]3(CCC(=O)[C@H]32)[C@@H](C)[C@@H]1O.[I-] | 64 | 64 | 0.5 | 1 | 1 | 2 | 64 | 64 | 64 | 64 | 2
C=C[C@]1(C)C[C@@H](OC(=O)CSc2cc[n+](CC(=O)N(Cc3ccccc3)Cc3ccccc3)cc2)[C@]2(C)[C@H](C)CC[C@]3(CCC(=O)[C@H]32)[C@@H](C)[C@@H]1O.[I-] | 64 | 16 | 0.25 | 0.25 | < 0.031 | 0.063 | 32 | 64 | > 64 | 64 | 4
C=C[C@]1(C)C[C@@H](OC(=O)CSc2cc[n+](Cc3ccc(C(=O)OC(C)(C)C)cc3)cc2)[C@]2(C)[C@H](C)CC[C@]3(CCC(=O)[C@H]32)[C@@H](C)[C@@H]1O.[I-] | 64 | 64 | 1 | 1 | 0.25 | 0.5 | 64 | 64 | > 64 | 64 | 4
C=C[C@]1(C)C[C@@H](OC(=O)CSc2cc[n+](CCCC)cc2)[C@]2(C)[C@H](C)CC[C@]3(CCC(=O)[C@H]32)[C@@H](C)[C@@H]1O.[Br-] | 16 | 64 | 0.25 | 0.25 | 0.063 | 0.125 | 32 | 64 | > 64 | 64 | 1
C=C[C@]1(C)C[C@@H](OC(=O)CSc2cc[n+](Cc3ccc(-c4ccccc4C#N)cc3)cc2)[C@]2(C)[C@H](C)CC[C@]3(CCC(=O)[C@H]32)[C@@H](C)[C@@H]1O.[I-] | 32 | 32 | 1 | 1 | < 0.031 | 0.125 | 32 | 64 | > 64 | 64 | 8
C=C[C@]1(C)C[C@@H](OC(=O)CSc2cc[n+](CC(=O)NC3CCCC3)cc2)[C@]2(C)[C@H](C)CC[C@]3(CCC(=O)[C@H]32)[C@@H](C)[C@@H]1O.[I-] | 64 | > 64 | 4 | 4 | 1 | 1 | 64 | 64 | > 64 | 64 | 8
C#CC[n+]1ccc(SCC(=O)O[C@@H]2C[C@@](C)(C=C)[C@@H](O)[C@H](C)[C@]34CCC(=O)[C@H]3[C@@]2(C)[C@H](C)CC4)cc1.[I-] | 16 | 32 | 0.125 | 0.125 | < 0.031 | 0.031 | 8 | 64 | > 64 | 64 | 0.5
C=C[C@]1(C)C[C@@H](OC(=O)CSc2cc[n+](CC(=O)NCc3ccccc3C)cc2)[C@]2(C)[C@H](C)CC[C@]3(CCC(=O)[C@H]32)[C@@H](C)[C@@H]1O.[I-] | 64 | 64 | 0.5 | 0.5 | 0.5 | 1 | 8 | 64 | 64 | 32 | 1
